Measured values taken from patent publication US11786534B2 (TAIHO PHARMACEUTICAL CO., LTD., priority 2019, dated 2023).

Key:
Type in all cases: biochemical
[1] = target: T1, human EGFR (d746-750/T790M/C797S) (Homo sapiens, UniProt P00533, C797S/DEL746-750/T790M); experiment: Inhibitory activity against EGFR (d746-750/T790M/C797S) kinase
T1 construct: made in house; host or cells: Sf9 insect cells, baculovirus
Description: 1) Measurement of inhibitory activity against EGFR (d746-750/T790M/C797S) kinase
The compounds of the above examples and comparative examples were measured for their inhibitory activity against EGFR (d746-750/T790M/C797S) kinase activity. Among the materials required for measurement of this inhibitory activity, the kinase protein (SEQ ID NO: 1) used was prepared as follows: the cytoplasmic domain of human EGFR (d746-750/T790M/C797S) fused at the ammo terminal end with a glutathione-S-transferase (GST) tag was expressed M insect cells (Sf9) by the baculovirus expression system and then purified an a glutathione sepharose column. For use as a substrate peptide, a peptide biotinylated at the N-terminal end (biotin -EEPLYWSFPAKKK) was synthesized by reference to Perkin Elmer LabChip® series reagent FL-Peptide 22.
Procedures for measurement of the inhibitory activity are as follows. First, the compounds of the present invention were each dissolved in dimethyl sulfoxide (DMSO), and their serial dilutions were then prepared with DMSO. Secondly, each compound serial dilution (final concentration of DMSO during kinase reaction: 2.5%) or DMSO (final concentration: 2.5%) was mixed with a solution containing the substrate peptide (final concentration: 250 nM), magnesium chloride (final concentration: 10 mM), manganese chloride (final concentration: 10 mM) and ATP (final concentration: 6 μM) in a kinase reaction buffer (Carna Biosciences Inc., Japan), and the EGFR (d746-750/T790M/C797S) protein was further added thereto, followed by incubation at 25° C. for 120 minutes to cause kinase reaction. To the reaction solution, EDTA was added to give a final concentration of 24 mM to thereby stop the reaction, followed by addition of a phospholylated tyrosine detection solution containing europium-labeled anti-phosphorylated tyrosine antibody PT66 (Perkin Elmer) and SureLight APC-SA (Perkin Elmer). The reaction solution was allowed to stand at room temperature for 2 hours or longer. As a background, DMSO was used instead of each compound solution in .DMSO, and EDIA was added prior to the addition of the EGFR EGFR (d746-750/T790M/C797S) protein, followed by incubation at 25° C. for 120 minutes. The same detection solution was also added to this reaction solution, which was then allowed to stand for 2 hours or longer. Finally, all the test samples were measured with a PHERAstar FS reader (BMG LABTECH) for their fluorescence intensity at two wavelengths of 620 nm and 665 nm upon irradiation with an excitation light of 337 nm wavelength, and the ratio of fluorescence intensities at these two wavelengths was obtained as data for each compound.
Moreover, as control compounds, the above Comparative Example A (Example 3 in WO2013/118817) and Comparative Example B (Example 35 in WO2013/118817) known to have EGFR inhibitory activity were used.
In accordance with the same procedures as shown in 1) in Test Example 1, the compounds of the above examples were measured for their inhibitory activity against EGFR (d746-750/T790M/C797S) kinase activity.

[2] = target: T2, human EGFR (L858R/T790M/C797S) (Homo sapiens, UniProt P00533, C797S/L858R/T790M); experiment: Inhibitory activity against EGFR (L858R/T790M/C797S) kinase
T2 construct: made in house; host or cells: Sf9 insect cells, baculovirus
Description: 2) Measurement of inhibitory activity against EGFR (L858R/T790M/C797S) kinase
The compounds of the presein invention were measured for their inhibitory activity against EGFR (L858R/T790M/C797S) kinase activity.
The materials, measurement procedures and data analysis method used in this test are substantially the same as those shown in the section “Measurement of inhibitory activity against EGFR (d746-750/T790M/C797S) kinase.” However, among the materials, the kinase protein (SEQ ID NO: 2) used was prepared as follows: the cytoplasmic domain of human EGFR (L858R/T790M/C797S) fused at the amino terminal end with a GST tag was expressed in insect cells (Sf9) by the baculovirus expression system and then purified on a glutathione sepharose column. In the measurement procedures, the final concentration of ATP was set to 0.5 μM. Finally, data analysis was conducted to determine the IC50 value (nM) of each compound against EGFR (L858R/T790M/C797S).
In accordance with the same procedures as shown in 2) in Test Example 1, the compounds of the present invention were measured for their inhibitory activity against EGFR (L858R/T790M/C797S) kinase activity.

[3] = target: T3, human EGFR (d746-750/C797S) (Homo sapiens, UniProt P00533, C797S/DEL746-750); experiment: Inhibitory activity against EGFR (d746-750/C797S) kinase
T3 construct: purchased SignalChem
Description: 3) Measurement of inhibitory activity against EGFR (d746-750/C797S) kinase
The compounds of the present invention were measured for their inhibitory activity against EGFR (d746-750/C797S) kinase activity.
The materials, measurement procedures and data analysis method used in this test are substantially the same as those shown in the section “Measurement of inhibitory activity aiainst EGFR (d746-750/T790M/C797S) kinase.” However, among the materials, the kinase protein used was a purified recombinant human EGFR (d746-750/C797S) protein purchased from SignalChem, while the kinase reaction buffer used was 13.5 mM Tris (pH 7.5) containing 2 mM dithiothreitol and 0.009% Tween-20. In the measurement procedures, the final concentration of ATP was set to 14 μM, the final concentration of maganesium chloride was set to 20 mM, the final concentration of manganese chloride was set to 12.5 mM, the incubation time for kinase reaction was set to 60 minutes, and the final concentration of EDTA used to stop the kinase reaction was set to 40 mM. Finally, data analysis was conducted to determine to IC50 value (nM) of each compound against EGFR (d746-750/C797S).
In accordance with the same procedures as shown in 3) in Test Example 1, the compounds of the present invention were measured for their inhibitory activity against EGFR (d746-750/C797S) kinase activity.

[4] = target: T4, human EGFR (L858R/C797S) (Homo sapiens, UniProt P00533, C797S/L858R); experiment: Inhibitory activity against EGFR (L858R/C797S) kinase
T4 construct: purchased SignalChem
Description: 4) Measurement of inhibitory activity against EGFR (L858R/C797S) kinase
The compounds of the present invention were measured for their inhibitory activity aeainst EGFR (L858R/C797S) kinase activity.
The materials, measurement procedures and data analysis method used in this test are stibstantially the same as those shown in the section “Measurement of inhibitory activity against EGFR (d746-750/C797S) kinase.” However, among the materials, the kinase protein used was a purified recombinant human EGFR (C797S/L858R) protein purchased from SignalChem. In the measurement procedures, the final concentration of ATP was set to 4 μM, and the incubation time for kinase reaction was set to 90 minutes. Finally, data analysis was conducted determine the IC50 value (nM) of each compound against EGFR (L858R/C797S).
In accordance with the same procedures as shown in 4) in Test Example 1, the compounds of the present invention were measured for their inhibitor activity against. EGFR (L858R/C797S) kinase activity.

[5] = target: T5, human EGFR (WT) (Homo sapiens, UniProt P00533); experiment: Inhibitory activity against EGFR (WT) kinase
T5 construct: purchased Carna Biosciences Inc., Japan
Description: The compounds of the present invention were measured for their inhibitory activity nainst EGFR (WT) kinase activity.
The materials, measurement procedures and data analysis method used in this test. are substantially the same as those shown in the section “Measurement of inhibitory activity against EGFR (d746-750/T790M/C797S) kinase.” However, among the materials, the kinase protein used was a purified recombinant human EGFR (WT) purchased from Carna Biosciences Inc., Japan. In the measurement procedures, the final concentration of ATP was set to 1.5 μM. Finally, data analysis was conducted to determine the IC50 value (nM) of each compound against EGFR (WT).
In accordance with the same procedures as shown in 5) in Test Example 1, the compounds of the present invention were measured for their inhibitory activity against. EGFR (WT) kinase activity.

[6] = Test Example 1, Table 2, ATP 6 μM, 25° C., 120 minutes
[7] = Test Example 1, Table 3, ATP 0.5 μM
[8] = Test Example 1, Table 4, ATP 14 μM, 60 minutes
[9] = Test Example 1, Table 5, ATP 4 μM, 90 minutes
[10] = Test Example 1, Table 6, ATP 1.5 μM

T5 sequence (P00533 25-1210): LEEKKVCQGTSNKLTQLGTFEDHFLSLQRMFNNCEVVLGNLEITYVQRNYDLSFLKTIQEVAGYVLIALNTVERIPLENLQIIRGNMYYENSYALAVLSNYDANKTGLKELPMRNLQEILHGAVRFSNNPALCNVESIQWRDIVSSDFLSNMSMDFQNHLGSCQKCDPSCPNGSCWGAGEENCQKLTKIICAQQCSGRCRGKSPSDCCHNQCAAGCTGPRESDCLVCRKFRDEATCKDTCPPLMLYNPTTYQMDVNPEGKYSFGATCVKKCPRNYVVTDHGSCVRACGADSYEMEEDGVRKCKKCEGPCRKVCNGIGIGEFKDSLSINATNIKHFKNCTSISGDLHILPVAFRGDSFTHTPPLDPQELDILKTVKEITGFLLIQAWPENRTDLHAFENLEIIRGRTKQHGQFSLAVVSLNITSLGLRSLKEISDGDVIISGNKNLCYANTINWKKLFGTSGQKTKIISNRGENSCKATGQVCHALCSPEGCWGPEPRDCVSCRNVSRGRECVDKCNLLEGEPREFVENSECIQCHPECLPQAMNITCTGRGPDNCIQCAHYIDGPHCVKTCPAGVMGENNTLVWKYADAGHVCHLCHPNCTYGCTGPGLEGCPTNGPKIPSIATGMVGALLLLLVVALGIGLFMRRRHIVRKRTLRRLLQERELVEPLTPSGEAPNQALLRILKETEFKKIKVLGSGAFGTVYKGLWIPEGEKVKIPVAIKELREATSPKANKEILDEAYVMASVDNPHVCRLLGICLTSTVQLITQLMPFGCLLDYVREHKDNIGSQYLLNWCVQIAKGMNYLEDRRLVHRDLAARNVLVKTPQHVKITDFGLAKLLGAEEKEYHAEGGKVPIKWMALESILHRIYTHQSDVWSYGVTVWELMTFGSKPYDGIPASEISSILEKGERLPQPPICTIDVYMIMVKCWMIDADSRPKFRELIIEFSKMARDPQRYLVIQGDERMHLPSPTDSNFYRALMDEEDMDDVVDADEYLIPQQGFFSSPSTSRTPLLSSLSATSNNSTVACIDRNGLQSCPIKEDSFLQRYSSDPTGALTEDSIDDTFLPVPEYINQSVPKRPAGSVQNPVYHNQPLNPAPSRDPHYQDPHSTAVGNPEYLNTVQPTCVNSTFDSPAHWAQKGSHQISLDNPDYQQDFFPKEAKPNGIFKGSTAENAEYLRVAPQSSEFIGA
T2 sequence (P00533 with tags, fused parts or gaps T790M/C797S/L858R): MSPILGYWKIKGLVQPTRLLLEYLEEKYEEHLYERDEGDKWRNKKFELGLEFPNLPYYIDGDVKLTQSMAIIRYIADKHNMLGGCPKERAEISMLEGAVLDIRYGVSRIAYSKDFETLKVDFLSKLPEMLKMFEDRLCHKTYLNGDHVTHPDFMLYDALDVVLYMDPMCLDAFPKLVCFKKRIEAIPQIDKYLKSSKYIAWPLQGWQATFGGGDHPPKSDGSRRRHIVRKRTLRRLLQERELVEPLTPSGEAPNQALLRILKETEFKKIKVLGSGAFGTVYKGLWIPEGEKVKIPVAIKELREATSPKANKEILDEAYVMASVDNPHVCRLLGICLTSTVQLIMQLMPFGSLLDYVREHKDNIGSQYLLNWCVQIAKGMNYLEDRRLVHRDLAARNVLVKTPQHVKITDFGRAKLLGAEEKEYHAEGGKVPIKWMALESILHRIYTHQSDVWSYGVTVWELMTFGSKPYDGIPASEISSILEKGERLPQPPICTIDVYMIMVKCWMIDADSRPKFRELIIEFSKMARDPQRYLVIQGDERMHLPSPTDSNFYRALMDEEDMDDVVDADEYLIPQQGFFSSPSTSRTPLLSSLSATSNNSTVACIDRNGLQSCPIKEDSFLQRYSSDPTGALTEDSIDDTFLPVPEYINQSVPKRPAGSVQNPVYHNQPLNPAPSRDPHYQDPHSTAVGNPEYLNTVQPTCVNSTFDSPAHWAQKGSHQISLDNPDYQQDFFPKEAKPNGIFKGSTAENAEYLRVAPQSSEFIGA
T3 sequence (P00533 with tags, fused parts or gaps DEL746-750/C797S): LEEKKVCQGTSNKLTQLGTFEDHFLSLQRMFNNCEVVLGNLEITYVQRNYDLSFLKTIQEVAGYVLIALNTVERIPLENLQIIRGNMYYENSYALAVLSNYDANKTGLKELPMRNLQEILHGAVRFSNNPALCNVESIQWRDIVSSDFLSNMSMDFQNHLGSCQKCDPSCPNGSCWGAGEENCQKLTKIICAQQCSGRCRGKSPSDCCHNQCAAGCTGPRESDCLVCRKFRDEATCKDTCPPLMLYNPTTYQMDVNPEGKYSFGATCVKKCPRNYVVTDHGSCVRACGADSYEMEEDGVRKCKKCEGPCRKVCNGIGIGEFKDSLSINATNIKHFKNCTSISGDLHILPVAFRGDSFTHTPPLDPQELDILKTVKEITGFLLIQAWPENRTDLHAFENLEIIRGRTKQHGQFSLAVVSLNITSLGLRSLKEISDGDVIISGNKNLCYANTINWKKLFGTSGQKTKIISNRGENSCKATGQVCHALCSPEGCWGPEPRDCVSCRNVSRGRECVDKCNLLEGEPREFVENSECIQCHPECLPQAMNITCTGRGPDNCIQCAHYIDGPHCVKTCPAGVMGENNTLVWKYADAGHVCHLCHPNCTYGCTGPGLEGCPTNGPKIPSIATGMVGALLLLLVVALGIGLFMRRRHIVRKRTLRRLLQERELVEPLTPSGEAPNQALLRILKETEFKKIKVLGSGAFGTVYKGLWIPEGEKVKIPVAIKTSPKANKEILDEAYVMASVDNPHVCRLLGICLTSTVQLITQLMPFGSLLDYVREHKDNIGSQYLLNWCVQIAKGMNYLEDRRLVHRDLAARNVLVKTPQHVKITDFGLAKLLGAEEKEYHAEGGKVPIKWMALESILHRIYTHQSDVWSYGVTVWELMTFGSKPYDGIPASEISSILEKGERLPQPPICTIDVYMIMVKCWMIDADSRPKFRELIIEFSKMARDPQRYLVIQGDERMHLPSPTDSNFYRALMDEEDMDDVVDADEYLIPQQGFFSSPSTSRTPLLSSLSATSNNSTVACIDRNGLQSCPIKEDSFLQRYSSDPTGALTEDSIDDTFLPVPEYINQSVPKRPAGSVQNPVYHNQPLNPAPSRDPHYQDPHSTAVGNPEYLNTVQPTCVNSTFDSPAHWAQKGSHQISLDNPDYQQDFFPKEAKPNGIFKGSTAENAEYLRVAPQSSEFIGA
T1 sequence (P00533 with tags, fused parts or gaps DEL746-750/T790M/C797S): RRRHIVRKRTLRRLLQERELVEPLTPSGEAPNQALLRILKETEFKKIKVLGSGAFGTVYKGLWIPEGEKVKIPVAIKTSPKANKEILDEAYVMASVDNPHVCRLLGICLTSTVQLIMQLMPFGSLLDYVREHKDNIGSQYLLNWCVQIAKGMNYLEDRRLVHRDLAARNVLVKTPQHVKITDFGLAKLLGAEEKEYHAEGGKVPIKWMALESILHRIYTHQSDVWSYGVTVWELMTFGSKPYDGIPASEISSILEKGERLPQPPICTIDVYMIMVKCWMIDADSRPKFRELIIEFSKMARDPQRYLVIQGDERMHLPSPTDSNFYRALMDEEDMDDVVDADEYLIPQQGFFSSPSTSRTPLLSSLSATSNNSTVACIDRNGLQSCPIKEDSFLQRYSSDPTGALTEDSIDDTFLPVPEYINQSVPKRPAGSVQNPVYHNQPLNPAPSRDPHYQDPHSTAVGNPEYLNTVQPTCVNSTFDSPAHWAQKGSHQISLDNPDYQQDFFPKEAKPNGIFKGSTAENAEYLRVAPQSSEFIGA
T4 sequence (P00533 25-1210 C797S/L858R): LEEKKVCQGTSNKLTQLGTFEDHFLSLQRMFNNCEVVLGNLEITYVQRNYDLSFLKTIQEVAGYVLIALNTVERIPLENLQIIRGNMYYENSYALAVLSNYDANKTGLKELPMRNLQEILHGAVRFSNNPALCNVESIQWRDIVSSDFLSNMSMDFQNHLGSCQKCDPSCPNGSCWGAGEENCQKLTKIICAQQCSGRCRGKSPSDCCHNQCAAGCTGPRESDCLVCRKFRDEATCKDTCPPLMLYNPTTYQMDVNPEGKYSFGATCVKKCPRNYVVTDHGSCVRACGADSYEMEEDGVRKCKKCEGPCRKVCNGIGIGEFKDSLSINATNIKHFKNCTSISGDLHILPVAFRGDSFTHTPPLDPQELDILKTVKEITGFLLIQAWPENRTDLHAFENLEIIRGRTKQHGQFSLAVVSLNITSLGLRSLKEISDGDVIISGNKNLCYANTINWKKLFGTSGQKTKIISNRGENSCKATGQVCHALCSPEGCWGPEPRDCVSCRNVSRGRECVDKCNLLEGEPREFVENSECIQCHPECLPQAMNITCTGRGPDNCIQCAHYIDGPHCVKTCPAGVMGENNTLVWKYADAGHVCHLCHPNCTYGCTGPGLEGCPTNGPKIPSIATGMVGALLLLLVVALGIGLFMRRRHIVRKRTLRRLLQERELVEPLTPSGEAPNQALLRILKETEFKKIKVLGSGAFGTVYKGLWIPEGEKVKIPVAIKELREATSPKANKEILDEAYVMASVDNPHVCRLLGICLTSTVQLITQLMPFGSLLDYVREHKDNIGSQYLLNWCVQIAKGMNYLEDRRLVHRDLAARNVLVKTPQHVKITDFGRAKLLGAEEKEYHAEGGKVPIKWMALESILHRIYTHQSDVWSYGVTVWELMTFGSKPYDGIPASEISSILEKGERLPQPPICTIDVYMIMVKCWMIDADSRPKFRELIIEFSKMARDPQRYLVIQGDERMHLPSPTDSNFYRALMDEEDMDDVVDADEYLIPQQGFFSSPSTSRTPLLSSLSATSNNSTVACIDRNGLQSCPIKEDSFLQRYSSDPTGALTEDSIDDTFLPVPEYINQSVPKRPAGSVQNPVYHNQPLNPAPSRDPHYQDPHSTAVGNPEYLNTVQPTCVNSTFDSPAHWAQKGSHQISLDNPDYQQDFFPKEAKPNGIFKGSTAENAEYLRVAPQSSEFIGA

Row | SMILES | IC50 [1, 6] [nM] | IC50 [2, 7] [nM] | IC50 [3, 8] [nM] | IC50 [4, 9] [nM] | IC50 [5, 10] [nM] | IC50 ([1]; Test Example 3, Table 8; same procedures as 1) in Test Example 1) [nM] | IC50 ([2]; Test Example 3, Table 9; same procedures as 2) in Test Example 1) [nM] | IC50 ([3]; Test Example 3, Table 10; same procedures as 3) in Test Example 1) [nM] | IC50 ([4]; Test Example 3, Table 11; same procedures as 4) in Test Example 1) [nM] | IC50 ([5]; Test Example 3, Table 12; same procedures as 5) in Test Example 1) [nM]
1 | C#Cc1c(-c2cnc3ccccc3c2)c2c(N)ncnc2n1C12CCC(NC(=O)c3ccnn3CCOC)(CC1)C2 [Example 17, N-(4-(4-Amino-6-ethynyl-5-(quinolin-3-yl)-7H-pyrrolo[2,3-d]pyrimidin-7-yl)bicyclo-[2.2.1]heptan-1-yl)-1-(2-methoxyethyl)-1H-pyrazole-5-carboxamide] | < 0.3 | 0.79 | 0.61 | 0.66 | 2.6 |  |  |  |  | 
2 | C#Cc1c(-c2cnc3ccccc3c2)c2c(N)ncnc2n1C12CCC(NC(=O)c3nccnn3)(CC1)C2 [Example 19, N-(4-(4-Amino-6-ethynyl-5-(quinolin-3-yl)-7H-pyrrolo[2,3-d]pyrimidin-7-yl)bicyclo-[2.2.1]heptan-1-yl)-1,2,4-triazine-3-carboxamide] | < 0.3 | < 0.3 | < 0.3 | 0.3 | 0.39 |  |  |  |  | 
3 | C#Cc1c(-c2cnc3ccccc3c2)c2c(N)ncnc2n1C12CCC(NC(=O)c3cncc(OCF)n3)(CC1)C2 [Example 38, N-(4-(4-Amino-6-ethynyl-5-(quinolin-3-yl)-7H-pyrrolo[2,3-d]pyrimidin-7-yl)-bicyclo-[2.2.1]heptan-1-yl)-6-(fluoromethoxy)pyrazine-2-carboxamide] | < 0.3 | 0.66 | 0.56 | 0.97 | 1.6 |  |  |  |  | 
4 | C#Cc1c(-c2cnc3ccccc3c2)c2c(N)ncnc2n1C12CCC(NC(=O)N3CCOCC3)(CC1)C2 [Example 61, N-(4-(4-Amino-6-ethynyl-5-(quinolin-3-yl)-7H-pyrrolo[2,3-d]pyrimidin-7-yl)bicyclo-[2.2.1]heptan-1-yl)morpholine-4-carboxamide] |  |  |  |  |  | < 0.3 | 1.6 | 0.54 | 1.1 | 2.7
5 | C#Cc1c(-c2cnc3ccccc3c2)c2c(N)ncnc2n1C12CCC(NC(=O)c3cnccc3OC)(CC1)C2 [Example 31, N-(4-(4-Amino-6-ethynyl-5-(quinolin-3-yl)-7H-pyrrolo[2,3-d]pyrimidin-7-yl)bicyclo-[2.2.1]heptan-1-yl)-4-methoxynicotinamide] | < 0.3 | 0.52 | 0.49 | 0.62 | 1.5 |  |  |  |  | 
6 | C#Cc1c(-c2cnc3ccccc3c2)c2c(N)ncnc2n1C12CCC(NC(=O)c3ccnn3C)(CC1)CC2 [Example 6, N-(4-(4-Amino-6-ethynyl-5-(quinoiln-3-yl)-7H-pyrrolo[2,3-d]pyrimidin-7-yl)bicyclo-[2.2.2]octan-1-yl)-1-methyl-1H-pyrazole-5-carboxamide] | < 0.3 | 0.7 | 2.1 | 4.6 | 5.2 |  |  |  |  | 
7 | C#Cc1c(-c2cnc3ccccc3c2)c2c(N)ncnc2n1C12CCC(NC(=O)c3cc(CF)nn3C)(CC1)C2 [Example 29, N-(4-(4-Amino-6-ethynyl-5-(quinolin-3-yl)-7H-pyrrolo[2,3-d]pyrimidin-7-yl)bicyclo-[2.2.1]heptan-1-yl)-3-(fluoromethyl)-1-methyl-1H-pyrazole-5-carboxamide] | < 0.3 | 0.31 | 0.32 | 0.39 | 0.62 |  |  |  |  | 

Results, then the compound that gave them:

Row | IC50 [1, 6] [nM] | IC50 [2, 7] [nM] | IC50 [3, 8] [nM] | IC50 [4, 9] [nM] | IC50 [5, 10] [nM] | IC50 ([1]; Test Example 3, Table 8; same procedures as 1) in Test Example 1) [nM] | IC50 ([2]; Test Example 3, Table 9; same procedures as 2) in Test Example 1) [nM] | IC50 ([3]; Test Example 3, Table 10; same procedures as 3) in Test Example 1) [nM] | IC50 ([4]; Test Example 3, Table 11; same procedures as 4) in Test Example 1) [nM] | IC50 ([5]; Test Example 3, Table 12; same procedures as 5) in Test Example 1) [nM] | SMILES
8 | < 0.3 | 0.42 | < 0.3 | 0.35 | 0.55 |  |  |  |  |  | C#Cc1c(-c2cnc3ccccc3c2)c2c(N)ncnc2n1C12CCC(NC(=O)c3cnnn3C)(CC1)C2 [Example 22, N-(4-(4-Amino-6-ethynyl-5-(quinolin-3-yl)-7H-pyrrolo[2,3-d]pyrimidin-7-yl)bicyclo-[2.2.1]heptan-1-yl)-1-methyl-1H-1,2,3-triazole-5-carboxamide]
9 | < 0.3 | 0.6 | 1.5 | 2.6 | 0.88 |  |  |  |  |  | C#Cc1c(-c2cnc3ccccc3c2)c2c(N)ncnc2n1C12CCC(NC(=S)NCC)(CC1)C2 [Example 52]
10 | < 0.3 | 0.39 | 2.4 | 3.8 | 2.1 |  |  |  |  |  | C#Cc1c(-c2cnc3ccccc3c2)c2c(N)ncnc2n1C12CCC(NC(=O)OCC)(CC1)C2 [Example 12, Ethyl (4-(4-amino-6-ethynyl-5-(quinolin-3-yl)-7H-pyrrolo[2,3-d]pyrimidin-7-yl) -bicyclo[2.2.1]heptan-1-yl)carbamate]
